Our source for the IC50 values is patent publication US9266883B2, “Ring-fused bicyclic pyridyl derivatives as FGFR4 inhibitors” (Novartis AG, priority 2013, dated 2016).

Each structure is given as a SMILES string. Where a name gives a salt, the structure may show the parent alone. Read-outs that look alike come from different tables or passages of the source.

As a reminder, the IC50 is the concentration at which inhibition is half-maximal.

For assay [1], the target named is FGFR4 (GST-FGFR4(388-802)) (Homo sapiens (Human), UniProt P22455). Put plainly: In-vitro biochemical kinase assay for FGFR4 (Caliper microfluidic mobility shift).
Chain of FGFR4 (GST-FGFR4(388-802)) (P22455 388-802): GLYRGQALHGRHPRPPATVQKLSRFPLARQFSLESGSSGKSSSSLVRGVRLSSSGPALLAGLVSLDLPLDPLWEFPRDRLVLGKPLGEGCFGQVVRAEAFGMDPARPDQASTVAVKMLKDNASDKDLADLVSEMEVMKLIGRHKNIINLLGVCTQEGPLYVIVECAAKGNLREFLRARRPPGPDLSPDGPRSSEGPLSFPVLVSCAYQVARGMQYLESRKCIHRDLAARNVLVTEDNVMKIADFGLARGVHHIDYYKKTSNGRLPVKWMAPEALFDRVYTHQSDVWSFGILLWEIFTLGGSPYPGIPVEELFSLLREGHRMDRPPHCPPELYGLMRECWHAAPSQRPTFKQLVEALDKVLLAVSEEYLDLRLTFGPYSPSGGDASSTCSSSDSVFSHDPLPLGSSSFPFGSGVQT
Another assay addresses Tel-FGFR4 (Homo sapiens (Human), UniProt P22455). Put plainly: In vitro cellular kinase assay for FGFR4 (BaF3-Tel-FGFR4 cells, MSD capture ELISA of tyrosine phosphorylation). Format: cell-based. (In general: In an ELISA, binding on a coated surface is turned into a signal by an enzyme label.)
[2] abbreviates: biochemical FGFR4 assay, read-out: Biochemical IC50.
Setting [3] is: Cellular BaF3 FGFR4 assay, read-out: Cellular IC50.
Setting [4] is: read-out: Biochemical FGFR4 IC50.
The mark [5] stands for this setting: BaF3-Tel-FGFR4 cells, 1 hour incubation, read-out: Cellular BaF3 FGFR4 IC50.
Setting [6] is: read-out: IC50 in the biochemical assay.

Chain of Tel-FGFR4 (P22455 other isoform, or with tags, fused parts or gaps): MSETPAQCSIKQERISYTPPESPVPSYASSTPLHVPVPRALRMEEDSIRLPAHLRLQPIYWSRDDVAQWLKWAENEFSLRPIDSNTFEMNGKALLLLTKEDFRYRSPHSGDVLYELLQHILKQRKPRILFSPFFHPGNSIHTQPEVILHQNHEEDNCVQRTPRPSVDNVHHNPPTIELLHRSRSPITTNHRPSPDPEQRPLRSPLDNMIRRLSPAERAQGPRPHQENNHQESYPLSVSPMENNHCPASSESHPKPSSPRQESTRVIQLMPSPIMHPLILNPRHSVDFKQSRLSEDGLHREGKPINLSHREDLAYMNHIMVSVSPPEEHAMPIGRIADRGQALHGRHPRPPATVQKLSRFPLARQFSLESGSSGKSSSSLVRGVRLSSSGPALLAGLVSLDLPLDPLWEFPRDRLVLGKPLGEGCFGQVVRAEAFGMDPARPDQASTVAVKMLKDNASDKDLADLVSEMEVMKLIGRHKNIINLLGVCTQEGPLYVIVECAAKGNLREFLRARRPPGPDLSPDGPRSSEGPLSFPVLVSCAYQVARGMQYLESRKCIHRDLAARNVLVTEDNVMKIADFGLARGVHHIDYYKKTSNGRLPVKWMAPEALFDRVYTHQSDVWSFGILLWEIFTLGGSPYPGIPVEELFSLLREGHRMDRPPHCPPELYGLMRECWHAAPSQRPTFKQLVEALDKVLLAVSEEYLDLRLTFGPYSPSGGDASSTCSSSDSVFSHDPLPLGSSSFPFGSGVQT

On to `CC(=O)N(C)Cc1cc2c(nc1C=O)N(C(=O)Nc1cc(NCC3CN(C)CCO3)c(C#N)cn1)CCC2` (centres unmarked) [N-(5-cyano-4-(((4-methylmorpholin-2-yl)methyl)amino)pyridin-2-yl)-7-formyl-6-((N-methylacetamido)methyl)-3,4-dihydro-1,8-naphthyridine-1(2H)-carboxamide], for which the half-inhibitory concentration (IC50) in assay [1] (setting [2]) was 2.6 nM; at Tel-FGFR4 (setting [3]), 21 nM.
On the same counts, the results for `CO[C@@H](C)COc1cc(NC(=O)N2CCCc3cc(CN4CCN(C)CC4=O)c(C=O)nc32)ncc1C#N` [(S)-N-(5-cyano-4-(2-methoxypropoxyl)pyridin-2-yl)-7-formyl-6-((4-methyl-2-oxopiperazin-1-yl)methyl)-3,4-dihydro-1,8-naphthyridine-1(2H)-carboxamide] are 2.2 nM and 10.8 nM.
As for `COC[C@@H](C)Oc1nc(NC(=O)N2CCCc3cc(CO)c(C=O)nc32)ncc1Cl` [Example 59, (R)-N-(5-chloro-4-((1-methoxypropan-2-yl)oxy)pyrimidin-2-yl)-7-formyl-6-(hydroxymethyl)-3,4-dihydro-1,8-naphthyridine-1(2H)-carboxamide], the IC50 turned out to be 48 nM in assay [1] (setting [4]) and 105 nM on Tel-FGFR4 (setting [5]).
In the case of `CN1CCN(Cc2cc3c(nc2C=O)N(C(=O)Nc2cc(NCCOS(=O)(=O)O)c(C#N)cn2)CCC3)C(=O)C1` [Example 236, 2-((5-cyano-2-(7-formyl-6-((4-methyl-2-oxopiperazin-1-yl)methyl)-1,2,3,4-tetrahydro-1,8-naphthyridine-1-carboxamido)pyridin-4-yl)amino)ethyl hydrogen sulfate], the IC50 in assay [1] (setting [4]) is 8.2 nM; on Tel-FGFR4 (setting [5]), 1130 nM; at Tel-FGFR4 (measured and considered as outlier values, not included in the table or list, read-out: IC50 in the cellular BaF3 FGFR4 assay, outlier values) it was more than 3000 nM.
For `O=Cc1nc2c(cc1CO)CCCN2C(=O)Nc1cc(O[C@H]2CCOC2)ccn1` [Example 71, (S)-7-formyl-6-(hydroxymethyl)-N-(4-((tetrahydrofuran-3-yl)oxy)pyridin-2-yl)-3,4-dihydro-1,8-naphthyridine-1(2H)-carboxamide], the results for the IC50 (in assay [1] (setting [4]); on Tel-FGFR4 (setting [5])) were 810 nM and 1570 nM, respectively.
Take `CC(C)Oc1cc(NC(=O)N2CCCc3cc(CN4C[C@@H](N(C)C)CC4=O)c(C=O)nc32)ncc1C#N` [(S)-N-(5-cyano-4-isopropoxypyridin-2-yl)-6-((4-(dimethylamino)-2-oxopyrrolidin-1-yl)methyl)-7-formyl-3,4-dihydro-1,8-naphthyridine-1(2H)-carboxamide]: the IC50 is 0.2 nM in assay [1] (setting [2]) and 11.1 nM on Tel-FGFR4 (setting [3]).
On the same counts, the results for `COCCOc1cc(NC(=O)N2CCCc3cc(CN4CCNCC4=O)c(C=O)nc32)ncc1C#N` [N-(5-cyano-4-(2-methoxyethoxyl)pyridin-2-yl)-7-formyl-6-((2-oxopiperazin-1-yl)methyl)-3,4-dihydro-1,8-naphthyridine-1(2H)-carboxamide trifluoroacetate] are 4.6 nM and 56 nM.
For `COCCNc1cc(NC(=O)N2CCCc3cc(CN4CC[C@@H](N(C)C)C4=O)c(C=O)nc32)ncc1C#N` [(R)-N-(5-cyano-4-((2-methoxyethyl)amino)pyridin-2-yl)-6-((3-(dimethylamino)-2-oxopyrrolidin-1-yl)methyl)-7-formyl-3,4-dihydro-1,8-naphthyridine-1(2H)-carboxamide] the same measures were 1.6 nM and 3.9 nM.
For `CCC(=O)N(C)Cc1cc2c(nc1C=O)N(C(=O)Nc1cc(NCCOC)c(C#N)cn1)CCC2` [N-(5-cyano-4-((2-methoxyethyl)amino)pyridin-2-yl)-7-formyl-6-((N-methylpropionamido)methyl)-3,4-dihydro-1,8-naphthyridine-1(2H)-carboxamide] the same measures were 0.6 nM and 4 nM.
For the compound `CNc1cc(NC(=O)N2CCCc3cc(CN(C)C(=O)CN(C)C)c(C=O)nc32)ncc1C#N` [N-(5-cyano-4-(methylamino)pyridin-2-yl)-6-((2-(dimethylamino)-N-methylacetamido)methyl)-7-formyl-3,4-dihydro-1,8-naphthyridine-1(2H)-carboxamide], on Tel-FGFR4 (setting [3]), the half-inhibitory concentration (IC50) came to 11.3 nM.
The same measure, in the same setting: the value for `N#Cc1cnc(NC(=O)N2CCCc3cc(C(F)F)c(C=O)nc32)cc1OCC1CNCCO1` (centres unmarked) [N-(5-cyano-4-(morpholin-2-ylmethoxy)pyridin-2-yl)-6-(difluoromethyl)-7-formyl-3,4-dihydro-1,8-naphthyridine-1(2H)-carboxamide] was 10.8 nM.
Consider `N#Cc1cnc(NC(=O)N2CCCc3cc(CO)c(C=O)nc32)cc1NCCF` [Example 88, N-(5-cyano-4-((2-fluoroethyl)amino)pyridin-2-yl)-7-formyl-6-(hydroxymethyl)-3,4-dihydro-1,8-naphthyridine-1(2H)-carboxamide], for which, in assay [1] (setting [4]), the IC50 is 2.3 nM.
Same read-out and setting: the same measure for `COCCNc1cc(NC(=O)N2CCCc3cc(-n4cnc(C)n4)c(C=O)nc32)ncc1C#N` [Example 260, N-(5-cyano-4-((2-methoxyethyl)amino)pyridin-2-yl)-7-formyl-6-(3-methyl-1H-1,2,4-triazol-1-yl)-3,4-dihydro-1,8-naphthyridine-1(2H)-carboxamide]: 14 nM; for `CC(C)S(=O)(=O)c1ccccc1Nc1nc(NC(=O)N2CCCc3ccc(C=O)nc32)ncc1Cl` [Example 16, N-(5-chloro-4-((2-(isopropylsulfonyl)phenyl)amino)pyrimidin-2-yl)-7-formyl-3,4-dihydro-1,8-naphthyridine-1(2H)-carboxamide]: 0.2 nM.
Consider `COCCOc1cc(NC(=O)N2CCCc3cc(CN4CCCC4=O)c(C=O)nc32)ncc1C#N` [N-(5-cyano-4-(2-methoxyethoxyl)pyridin-2-yl)-7-formyl-6-((2-oxopyrrolidin-1-yl)methyl)-3,4-dihydro-1,8-naphthyridine-1(2H)-carboxamide], for which, in assay [1] (setting [6]), the IC50 was more than 1000 nM.
On the same count and under the same terms, the value for `O=Cc1nc2c(cc1CO)CCCN2C(=O)Nc1nccc(O[C@H]2CCOC2)n1` [(S)-7-formyl-6-(hydroxymethyl)-N-(4-((tetrahydrofuran-3-yl)oxy)pyrimidin-2-yl)-3,4-dihydro-1,8-naphthyridine-1(2H)-carboxamide] was more than 1000 nM.
In the case of `Cc1ccc(NC(=O)N2CCOc3ccc(C=O)nc32)nc1` [Example 9, 6-formyl-N-(5-methylpyridin-2-yl)-2H-pyrido[3,2-b][1,4]oxazine-4(3H)-carboxamide], the IC50 in assay [1] (setting [4]) stood at 190 nM.
Regarding `COCC(C)Nc1cc(NC(=O)N2CCCc3cc(CN(C)C(C)=O)c(C=O)nc32)ncc1C#N` (centres unmarked) [N-(5-cyano-4-((1-methoxypropan-2-yl)amino)pyridin-2-yl)-7-formyl-6-((N-methylacetamido)methyl)-3,4-dihydro-1,8-naphthyridine-1(2H)-carboxamide], the IC50 in assay [1] (setting [2]) is 0.8 nM.
`COCCNc1cc(NC(=O)N2CCCc3cc(-c4cccs4)c(C=O)nc32)ncc1C#N` [Example 253, N-(5-cyano-4-((2-methoxyethyl)amino)pyridin-2-yl)-7-formyl-6-(thiophen-2-yl)-3,4-dihydro-1,8-naphthyridine-1(2H)-carboxamide]: the IC50 on Tel-FGFR4 (setting [5]) came to 37 nM.
On to `CN(C)CCOc1cc(NC(=O)N2CCOc3ccc([13CH]=O)nc32)ncc1C#N` [Example 77, N-(5-cyano-4-(2-(dimethylamino)ethoxy)pyridin-2-yl)-6-form-^13C-yl-2H-pyrido[3,2-b][1,4]oxazine-4(3H)-carboxamide], for which the IC50 in assay [1] (setting [4]) worked out at 43 nM.
For `CNc1cc(NC(=O)N2CCCc3cc(CN4CCN(C)CC4=O)c(C=O)nc32)ncc1C#N` [N-(5-cyano-4-(methylamino)pyridin-2-yl)-7-formyl-6-((4-methyl-2-oxopiperazin-1-yl)methyl)-3,4-dihydro-1,8-naphthyridine-1(2H)-carboxamide], the 50% inhibitory concentration (IC50) at Tel-FGFR4 (setting [3]) amounted to 3.7 nM.
Regarding `COc1cc(NC(=O)N2CCCc3cc(CN4CCN(C)CC4=O)c(C=O)nc32)ncc1C(F)(F)F` [7-formyl-N-(4-methoxy-5-(trifluoromethyl)pyridin-2-yl)-6-((4-methyl-2-oxopiperazin-1-yl)methyl)-3,4-dihydro-1,8-naphthyridine-1(2H)-carboxamide], the IC50 in assay [1] (setting [2]) amounted to 89.5 nM.
Consider `CC(=O)N(C)Cc1cc2c(nc1C=O)N(C(=O)Nc1cc(OCc3cccs3)c(C#N)cn1)CCC2` [Example 239, N-(5-cyano-4-(thiophen-2-ylmethoxy)pyridin-2-yl)-7-formyl-6-((N-methylacetamido)methyl)-3,4-dihydro-1,8-naphthyridine-1(2H)-carboxamide], for which the IC50 at Tel-FGFR4 (setting [5]) amounted to 19.6 nM.
The same measure, in the same setting: the same measure for `CN(C)CC1CN(c2cc(NC(=O)N3CCCc4cc(CO)c(C=O)nc43)ncc2C#N)CCO1` (racemic) [Example 81, N-(5-cyano-4-(2-((dimethylamino)methyl)morpholino)pyridin-2-yl)-7-formyl-6-(hydroxymethyl)-3,4-dihydro-1,8-naphthyridine-1(2H)-carboxamide]: 146 nM.
Consider `Cc1cnc(NC(=O)N2CCCc3ccc(C=O)nc32)cc1C` [Example 6, N-(4,5-dimethylpyridin-2-yl)-7-formyl-3,4-dihydro-1,8-naphthyridine-1(2H)-carboxamide], for which the IC50 in assay [1] (setting [4]) came out at 110 nM.
The same measure, in the same setting: the same measure for `O=Cc1nc2c(cc1F)CCCN2C(=O)Nc1ccc(C(F)(F)F)cn1` [Example 15, 6-fluoro-7-formyl-N-(5-(trifluoromethyl)pyridin-2-yl)-3,4-dihydro-1,8-naphthyridine-1(2H)-carboxamide]: 45 nM.
Turning to `N#Cc1cnc(NC(=O)N2CCCc3cc(C(F)F)c(C=O)nc32)cc1OCC(F)(F)F` [N-(5-cyano-4-(2,2,2-trifluoroethoxyl)pyridin-2-yl)-6-(difluoromethyl)-7-formyl-3,4-dihydro-1,8-naphthyridine-1(2H)-carboxamide], in assay [1] (setting [2]), the IC50 came out at 110 nM.
Same read-out and setting: the value for `CC(=O)N(C)Cc1cc2c(nc1C=O)N(C(=O)Nc1cc(OC(C)C)c(C#N)cn1)CCC2` [N-(5-cyano-4-isopropoxypyridin-2-yl)-7-formyl-6-((N-methylacetamido)methyl)-3,4-dihydro-1,8-naphthyridine-1(2H)-carboxamide] was 1.5 nM.
